Test system: HH cells (CTCL cells; ATCC)
Assay: ViaLight Plus viability/proliferation assay, Vorinostat and Targretin combination
Type: cell-based
Protocol: Data from these assays was used to determine the range of combination concentrations. Both compounds were combined at concentrations close to their IC50 values. Subsequent combination viability/proliferation assays were performed using the ViaLight Plus protocol.
Costar white with clear bottom 96 well plates (#3603) were seeded with 25,000 cells per well in a volume of 100 μL/well of growth media for each time point. HH cell line growth media included RPMI (GIBCO #) with 10% FBS (GIBCO # SV30014.03), 1% Glutamax (GIBCO # 35050-061), and 1% Penicillin/Streptomycin (GIBCO # 30-002). […] For the fixed ratio method, compounds were combined and diluted together serially. […] For each treatment concentration, 25 μL of the appropriate dilution for each compound was added to the corresponding wells. Wells on the outer perimeter of the plate were not used. At each time-point, plates were read using the ViaLight Plus protocol. Luminescence was read using the Victor V plate reader.

Row | SMILES | decrease in viability (HH cell line, 0.60 μM Targretin alone (FIG. 1A)) [%] | cytotoxicity at 0.37 µM (Homo sapiens, HH, read-out: decrease in cell viability) [%]
1 | C=C(c1ccc(C(=O)O)cc1)c1cc2c(cc1C)C(C)(C)CCC2(C)C [Targretin®, 4-[1-(5,6,7,8-Tetrahydro-3,5,5,8,8-pentamethyl-2-naphthalenyl)ethenyl]benzoic acid] | ~40 | 
2 | O=C(CCCCCCC(=O)Nc1ccccc1)NO [Vorinostat, N-Hydroxy-N′-phenyl octanediamide] |  | ~40

Reference: patent publication US20090227674A1, “Combination methods fo saha and targretin for treating cancer” (priority 2005, published 2009)
